“Also recorded” adds a separate entry of the source. One block for each molecule: values may come before it. Where no end group is shown, it is not given here.
Key:
[1] = system: ^32P-labeled fragment of pBR322; assay: Cleavage of 32P-labeled DNA fragment, acrylamide gel electrophoresis; assay type: biochemical; conditions: 40 μM Ce^4+, 37° C. overnight
Protocol: FIG. 10. Sequence specificity of artificial endonucleases. […] Controls (water) were conducted to measure background cleavage. […] Minor products run with Maxam-Gilbert lanes.
Sequence Selective DNA Cleavage. […] This cleavage is not dependent on the strain inherent in supercoiled plasmid, as cleavage of linearized ^32P-labeled DNA oligonucleotides was observed as well. Labeled fragments were incubated with Ce(NH3)6(NO3)4 and varying concentrations of peptides P3 or P3W at 37° C. overnight and analyzed by acrylamide gel electrophoresis (FIG. 10). Cleavage was concentration dependent, and distinct between metallopeptides.

[2] = Hydrolysis of bis-nitrophenylphosphate (BNPP) followed spectrophotometrically at 400 nm; assay type: biochemical; conditions: for Rates (K(obs)) of BNPP cleavage: 500 μM BNPP, 37° C.
From the text: To test hydrolytic activity, the hydrolysis of binitrophenylphosphate (BNPP) is followed. The absorbance increase at 400 nm is due to liberated 4-nitrophenolate which can be monitored over time to give rate constants. The rate reflects the relative accessibility and reactivity of the active site, and can be compared to the rates observed for the hydrolytically active peptide or polypeptide.
Hydrolytic Phosphate Cleavage. Because the EF-Hand is physiologically strictly a structural motif, an isolated Ca-binding loop's ability to affect hydrolytic cleavage was addressed. The hydrolysis of bis-nitrophenylphosphate (BNPP) was followed spectrophotometrically under turnover conditions. The absorbance increase at 400 nm due to liberated 4-nitrophenolate was observed over the initial 10-14 hours of the reaction (<10% BNPP converted). […] Plots of absorbance vs. time were converted to concentration units (ε=18,500 M^−1 cm^−1) to give first order rate constants (Sardesai et al., 1994).

[3] = system: supercoiled plasmid DNA; assay: Cleavage of supercoiled plasmid DNA, agarose gel electrophoresis; assay type: biochemical; conditions: for Dependence of cleavage activity on concentration (in words): increasing metallopeptide concentration
Protocol: FIG. 8. […] Samples containing 1 μg plasmid (about 60 μM b.p.) in 10 mM Tris buffer, pH=7.0, were incubated for 48 hours at 37° C. Reactions were quenched by the addition of 0.5 M EDTA to a final concentration of 10 mM, followed by addition of 100 mM KCl. The reaction mixtures were then treated with Amberlyst cation exchange resin prior to electrophoresis. Lane 1: pUC19 DNA control; lanes 2-5: DNA plus increasing concentrations of EuC13 (20, 30, 50 and 100 μM); lanes 6-9: DNA plus increasing concentrations of free P3 (20, 30, 50 and 100 μM); lanes 10-15: DNA plus increasing concentrations of 1:1 Eu:P3 (10, 20, 30, 40, 50 and 100 μM).
The conversion of supercoiled plasmid (type I) to open circular (type II), linear (type III), or smaller fragments was monitored by agarose gel electrophoresis. Because the synthetic peptides bind strongly to DNA, thus preventing the observation of products, the peptides were chelated prior to electrophoresis (Falke et al., 1994). At the point each reaction was quenched (0.1 M EDTA), a suspension of neutral, washed, cation resin (Amberlyst, 10-20 μL) was incubated with each sample for 30 minutes, spun down, and the supernatent loaded into wells. After 24 hours of reaction (incubated at 37° C.), the concentration-dependent formation of open circular plasmid was observed (FIG. 8). […] Over a 10-300 μM EuP3 gradient, nicking occurred from 10-150 μM, with the greatest amount of cleavage at 30 μM EuP3.

[4] = Circular dichroism titration of peptides with Eu(III) (incl. TFE helix induction); conditions: initial portion of the curve (0-50 μM Eu(III)); read-out: Metal binding affinity (K1, Kd) estimated from CD titration
[5] = system: supercoiled plasmid DNA (pBR322); assay: DNA gel shift assay (agarose gel electrophoresis); assay type: binding; conditions: for Gel shift / affinity for supercoiled plasmid DNA (in words): 5-25 μM ligand, 15 minutes, room temperature
Protocol: DNA Gel Shift Assays. The affinity of EuP3, EuP2, and each free peptide for supercoiled plasmid DNA was examined by agarose gel electrophoresis. Plasmid (pBR322, New England Biolabs, Inc.) was incubated for 15 minutes at room temperature with increasing concentrations of each ligand (5-25 μM), prior to the addition of loading dye. Each lane contained 1 μg plasmid (50 μM base pairs) in 10 mM Tris buffer at pH 8.0. […] The interaction of ligand with supercoiled plasmid (type I) can be observed if run under conditions where the DNA-ligand interactions are not disturbed during electrophoresis. Supercoiled pBR322 was chosen as a standard plasmid, and was incubated for 15 minutes with EuCl3, EuP3, EuP2, or free peptide prior to electrophoresis. This small, 4,361 bp plasmid contains three [NT] sequences, and eight […] sequences, partial target sequences for engrailed homeodomain. In the absence of 0.1 M EDTA (normally added prior to electrophoresis to quench hydrolytic cleavage assays) and with short incubation times to minimize metal-catalyzed cleavage, a gel shift can be observed. […] From quantified concentration-dependent gel shift data, an estimate of the binding affinity of EuP3 can be made. Gels with increasing Eu-peptide concentrations (5 to 25 μM in each set) were quantified (ImageQuant; Molecular Simulations), and average band volumes were plotted versus concentration. […] Each graphed point represents data averaged from three gel experiments.

[6] = molecular target: the molecule itself; assay: dimerization constant of Eu(III)-bound P3 (self-association); isothermal titration microcalorimetry
[7] = molecular target: the molecule itself; assay: dimerization constant (self-association) from CD titration of P3 with Eu(III), helicity at 222 nm
Protocol: Circular Dichroism Titrations. The titration of P2 and P3 peptides with Eu(III) and Ca(II) was followed by circular dichroism spectroscopy on an Aviv 60DS spectrophotometer at 25° C. Samples (50 μM peptide) were scanned from 260 to 200 nm (0.1 mm pathlength cell, 1.0 nm bandwidth, 0.5 nm resolution), in 10 mM Tris(hydroxymethyl)aminomethane buffer (Tris; pH=7.8). Eu(III) and Ca(II) were added as the chlorides. Aliquots of 10 mM stock metal solutions were added to a maximum of 10 equivalents.
The secondary structure of P3 as a function of metal was followed by CD, calculating the % α-helicity from the molar ellipticity at 222 nm (100% helical=−31,500 deg cm² dmol⁻¹). With the addition of Eu(III) to P3, the helicity increases from 9 to 25%, showing enhanced structure correlated to metal-coordination. This increase in structure with added metal describes a curve which has an inflection point at approximately 1:1 Eu:P3, then continues to a 25% helical metal-saturated form. […] A second structural change, correlating to the discrete back-to-back dimerization which has been well characterized for similar EF-Hand peptides systems occurs at Kdim about 80 μM (Shaw et al., 1991; Wójcik et al., 1997; Clarke et al., 1993; Shaw et al., 1990; Maurer et al., 1995). […]

[8] = molecular target: the molecule itself; assay: dimerization constant of Eu(III)-bound P4a (self-association); called 'measured', method not stated
[9] = 10 μM Eu/10 μM peptide, pH 7.7, 10 mM Tris
[10] = 25 μM Eu/25 μM peptide, pH 7.7, 10 mM Tris
[11] = 25 μM Eu/50 μM peptide, pH 7.7, 10 mM Tris
[12] = 10-300 μM EuP3 gradient, 37° C.

Molecule: O=[N+]([O-])[O-].O=[N+]([O-])[O-].O=[N+]([O-])[O-].O=[N+]([O-])[O-].O=[N+]([O-])[O-].O=[N+]([O-])[O-].[Ce+4].[NH4+].[NH4+] [Ce^4+, (NH4)2 Ce(NO3)6]
Regioselectivity of cleavage: termini produced [1]: both 3′ and 5′ termini

Molecule: EuP4a: Eu(III)-bound peptide P4a (TERRRFDKDGNGYISAAELRHVKIWFQNKRAKIK)
Rates (K(obs)) of BNPP cleavage [2, 9]: 11.3 s^−1 × 10^7 | Rates (K(obs)) of BNPP cleavage [2, 10]: 56.3 s^−1 × 10^7 | Rates (K(obs)) of BNPP cleavage [2, 11]: 62.0 s^−1 × 10^7 | Rates (K(obs)) of BNPP cleavage ([2]; 50 μM Eu/50 μM peptide, pH 7.7, 10 mM Tris): 149.5 s^−1 × 10^7 | Rates (K(obs)) of BNPP cleavage ([2]; 50 μM Eu/100 μM peptide, pH 7.7, 10 mM Tris): 212.0 s^−1 × 10^7 | Dependence of cleavage activity on concentration (in words) [3]: does not

Kd [4]: ≤ 20 µM | Estimate of DNA binding affinity from quantified gel shift data ([5]; disappearance of type I band, 5 to 25 μM, average of three gels): ~20 µM
Molecule: EuP3: Eu(III)-bound peptide P3 (1:1 Eu-peptide) (TERRRQQLDKDGDGTIDEREIKIHFQNKRAKIK)
BNPP catalysis compared with free Eu(III) (in words) [2]: may not be as fast as free Eu(III) catalysis | Rates (K(obs)) of BNPP cleavage [2, 9]: 6.0 s^−1 × 10^7 | Rates (K(obs)) of BNPP cleavage [2, 10]: 7.3 s^−1 × 10^7 | Rates (K(obs)) of BNPP cleavage [2, 11]: 20.6 s^−1 × 10^7 | Rates (K(obs)) of BNPP cleavage ([2]; 50 μM Eu/50 μM peptide, pH 7.7, 5 mM Tris): 17.5 ± 4 s^−1 × 10^7 | Rates (K(obs)) of BNPP cleavage ([2]; 50 μM Eu/100 μM peptide, pH 7.7, 5 mM Tris): 11.5 ± 4 s^−1 × 10^7 | Concentration range in which nicking occurred [3, 12]: 10 to 150 µM | Concentration with the greatest amount of cleavage [3, 12]: 30 µM | Cleavage of supercoiled plasmid DNA (in words) ([3]; 37° C., pUC19 for EuP3, Eu(III) and Ce(IV) complexes for P3W): catalyzes the cleavage of supercoiled, double-stranded DNA; also recorded: cleavage of pUC19 plasmid DNA | Dependence of cleavage activity on concentration (in words) [3]: falls off with increasing concentration | Concentration causing a gel shift of supercoiled plasmid DNA ([5]; 50 μM base pairs): ≥ 10 µM | Gel shift / affinity for supercoiled plasmid DNA (in words) [5]: significant affinity for supercoiled plasmid DNA; also recorded: gel shift and disappearance of type I plasmid occurs; also recorded: DNA-binding affinity in the micromolar regime; also recorded: disappearance of type I band

Molecule: [Cl][Eu]([Cl])[Cl] [EuCl3, reference compound]
Rates (K(obs)) of BNPP cleavage ([2]; 10 μM Eu/0 μM peptide, pH 7.7, 5 mM Tris): 5.2 ± 0.6 s^−1 × 10^7 | Rates (K(obs)) of BNPP cleavage ([2]; 10 μM Eu/0 μM peptide, pH 7.7, 10 mM Tris): 1.4 s^−1 × 10^7 | Rates (K(obs)) of BNPP cleavage ([2]; 12 μM Eu/0 μM peptide, pH 7.7, 5 mM Tris): 5.7 ± 0.3 s^−1 × 10^7 | Rates (K(obs)) of BNPP cleavage ([2]; 15 μM Eu/0 μM peptide, pH 7.7, 10 mM Tris): 2.0 s^−1 × 10^7 | Rates (K(obs)) of BNPP cleavage ([2]; 20 μM Eu/0 μM peptide, pH 7.7, 5 mM Tris): 19 ± 3 s^−1 × 10^7 | Rates (K(obs)) of BNPP cleavage ([2]; 20 μM Eu/0 μM peptide, pH 7.7, 10 mM Tris): 2.7 s^−1 × 10^7 | Gel shift / affinity for supercoiled plasmid DNA (in words) [5]: not

B1: P3 (peptide)
peptide: TERRRQQLDKDGDGTIDEREIKIHFQNKRAKIK
modifications: also: Eu(III) complex, Eu(III) organizes two peptides into back-to-back dimer
notes: In the dimerization experiments it stood with Eu(III) (EuCl3); The entry describes the monomer; also called EuP3; peptide P3
Kd [6]: ≥ 80 µM | Kd [7]: ~80 µM

B2: P4a (peptide)
peptide: TERRRFDKDGNGYISAAELRHVKIWFQNKRAKIK
modifications: also: Eu(III) complex, dimer EuP4a2
notes: The entry describes the monomer; also called EuP4a; EuP4a2 (dimer)
Kd [8]: ≥ 300 µM

Source: patent US20040121357A1, “Artificial endonuclease” (priority 2004, published 2004)
